Data published in patent US20070275961A1, “Triazolo ' 1, 5-A ! Pyrimidines and Their Use in Medicine” (VERNALIS (CAMBRIDGE) LIMITED., priority 2003, published 2007).
Like-named read-outs stand apart in the source and are kept apart here.

What was measured:
Assay type in all cases: biochemical
[1] = biological target: CDK2 enzyme, complexed with cyclin A (Homo sapiens, UniProt P24941); assay: CDK2 cyclin dependent kinase assay, phosphorylation of synthetic peptide […] (33P-ATP filtration); conditions: 0.1 mM ATP
Procedure: (§1) The assay mixture containing the inhibitor and CDK2 enzyme, complexed with cyclin A (0.4 U/ml) was mixed together in a microtiter plate in a final volume of 50 μl and incubated for 40 min at 30° C. The assay mixture contained 0.1 mM unlabeled ATP, 0.01 μCi/μl ^33P-γ-ATP, 0.03 mM peptide, 0.1 mg/ml BSA, 7.5 mM magnesium acetate, 50 mM HEPES-NaOH, pH 7.5. The reaction was stopped by adding 50 μl of 50 mM phosphoric acid. 90 μl of the mixture were transferred to a pre-wetted 96-well Multiscreen MAPHNOB filtration plate (Millipore) and filtered on a vacuum manifold. The filter plate was washed with three successive additions of 200 μl 50 mM phosphoric acid and then with 100 μl methanol. The filtration plate was dried for 10 min at 65° C., scintillant added and phosphorylated peptide quantified in a scintillation counter (Trilux, PerkinElmer).
HEPES is N-[2-hydroxyethyl]piperazine-N′-[2-ethanesulfonic acid]. BSA is bovine serum albumin.

PDK1 enzyme = biological target: T1, PDK1 enzyme (Homo sapiens, UniProt O15530); assay: PDK1 3'-phosphoinositide-dependent kinase assay, phosphorylation of synthetic peptide (33P-ATP filtration); conditions: 0.01 mM ATP, read-out: PDK1 IC50
T1 sequence (O15530 1-556): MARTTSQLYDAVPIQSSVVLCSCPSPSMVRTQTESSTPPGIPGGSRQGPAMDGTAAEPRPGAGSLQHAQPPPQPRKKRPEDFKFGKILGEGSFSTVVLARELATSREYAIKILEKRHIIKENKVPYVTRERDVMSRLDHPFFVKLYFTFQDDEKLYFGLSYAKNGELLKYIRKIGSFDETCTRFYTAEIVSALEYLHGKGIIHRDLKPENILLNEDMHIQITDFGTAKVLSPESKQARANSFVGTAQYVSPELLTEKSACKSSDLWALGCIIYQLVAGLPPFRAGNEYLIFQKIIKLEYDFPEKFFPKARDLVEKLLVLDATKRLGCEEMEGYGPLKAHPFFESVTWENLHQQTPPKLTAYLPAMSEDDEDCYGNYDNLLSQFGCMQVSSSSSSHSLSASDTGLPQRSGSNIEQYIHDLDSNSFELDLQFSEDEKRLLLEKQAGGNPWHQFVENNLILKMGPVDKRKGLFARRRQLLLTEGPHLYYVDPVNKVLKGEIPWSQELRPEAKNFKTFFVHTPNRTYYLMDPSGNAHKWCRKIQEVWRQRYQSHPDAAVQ
Procedure: as §1, with “and PDK1 enzyme” for “and CDK2 enzyme, complexed with cyclin A (0.4 U/ml)”, “for 60” for “for 40”, “contained 0.01” for “contained 0.1”, “^33P-γ-ATP, 0.075” for “^33P-γ-ATP, 0.03”, “acetate, 0.05 M Tris.HCl,” for “acetate, 50 mM HEPES-NaOH,”, “pH 7.5, 0.5% 2-mercaptoethanol.” for “pH 7.5.”

Chk1 = biological target: T2, Chk1 (Homo sapiens, UniProt O14757); assay: Chk1 kinase assay, phosphorylation of Chktide (33P-ATP filtration); conditions: 0.01 mM ATP, read-out: Chk1 IC50
T2 sequence (O14757 1-476): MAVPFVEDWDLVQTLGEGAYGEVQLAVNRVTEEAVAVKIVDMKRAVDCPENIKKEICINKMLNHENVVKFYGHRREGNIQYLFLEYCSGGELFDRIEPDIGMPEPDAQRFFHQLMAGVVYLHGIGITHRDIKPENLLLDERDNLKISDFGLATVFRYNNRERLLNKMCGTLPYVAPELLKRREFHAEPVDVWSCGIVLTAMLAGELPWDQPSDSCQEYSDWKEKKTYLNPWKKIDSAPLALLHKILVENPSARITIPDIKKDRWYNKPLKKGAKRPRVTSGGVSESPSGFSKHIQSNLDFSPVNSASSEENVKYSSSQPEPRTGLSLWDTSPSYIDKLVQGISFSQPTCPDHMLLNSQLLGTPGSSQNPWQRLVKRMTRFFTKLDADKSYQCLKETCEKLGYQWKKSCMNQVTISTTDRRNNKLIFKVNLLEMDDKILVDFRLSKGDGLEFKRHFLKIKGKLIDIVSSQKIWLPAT
Procedure: Assays for the Chk1 kinase activity were carried out by monitoring the phosphorylation of a synthetic peptide Chktide with the amino acid sequence, […]. The assay mixture containing the inhibitor and Chk1 enzyme was mixed together in a microtiter plate in a final volume of 50 μl and incubated for 40 minutes at 30° C.
The assay mixture contained 0.01 mM unlabeled ATP, 0.5 μCi ^33P-γ-ATP, 30 μM Chktide, 0.1 mg/ml BSA, 50 mM Hepes-NaOH pH 7.5 and 11 nM GST-Chk1 enzyme. The reaction was stopped by adding 50 μl of 50 mM phosphoric acid. 90 μl of the mixture was transferred to a pre-wetted 96-well Multiscreen MAPHNOB filtration plate (Millipore) and filtered on a vacuum manifold. The filter plate was washed with three successive additions of 200 μl 50 mM phosphoric acid and then with 100 μl methanol. The filtration plate was dried for 10 min at 65° C., scintillant added and phosphorylated peptide quantified in a scintillation counter (Trilux, PerkinElmer).

SMILES: Clc1cc(NCC2CCNCC2)n2ncnc2n1 [Example 81]
- IC50 ([1]; Table 2): 177 µM
- IC50 (PDK1 enzyme; Table 2): > 200 µM
- IC50 (Chk1; Table 2): > 200 µM

SMILES: CN(C)c1ccc(Nc2cc(Cl)nc3ncnn23)cc1 [Example 21]
- IC50 ([1]; Table 1): 59 µM
- IC50 (PDK1 enzyme; Table 1): > 200 µM
- IC50 (Chk1; Table 1): > 200 µM

SMILES: Cc1cccc(-c2cc(Nc3ccc(N(C)C)cc3)nc3ncnn23)c1 [Example 108]
- IC50 ([1]; Table 3): > 200 µM
- IC50 (PDK1 enzyme; Table 3): 66.8 µM
- IC50 (Chk1; Table 3): 36.8 µM

SMILES: CCCc1cc(Nc2ccc(S(C)(=O)=O)cc2)n2ncnc2n1 [Example 74]
- IC50 ([1]; Table 2): 14.2 µM
- IC50 (PDK1 enzyme; Table 2): > 200 µM
- IC50 (Chk1; Table 2): > 200 µM

SMILES: C[C@H]1CCCC(Oc2cc(Nc3ccc(S(N)(=O)=O)cc3)n3ncnc3n2)C1 (stereo partly drawn) [Example 5]
- IC50 ([1]; Table 1): 6.4 µM
- IC50 (PDK1 enzyme; Table 1): > 200 µM
- IC50 (Chk1; Table 1): > 200 µM

SMILES: Cc1cccc(-c2cc(Nc3ccc(S(N)(=O)=O)cc3)n3ncnc3n2)c1 [Example 3, 7-(4-Aminosulfonylphenylamino)-5-(3-methylphenyl)triazolo[1,5-a]pyrimidine]
- IC50 ([1]; Table 1): 1.82 µM
- IC50 (PDK1 enzyme; Table 1): > 200 µM
- IC50 (Chk1; Table 1): > 200 µM

SMILES: NS(=O)(=O)c1ccc(Nc2cc(NCC3CCCCC3)nc3ncnn23)cc1 [Example 59]
- IC50 ([1]; Table 2): 3.86 µM
- IC50 (PDK1 enzyme; Table 2): 118 µM
- IC50 (Chk1; Table 2): 117 µM

SMILES: C[Si](C)(C)CCOCn1ncc2ccc(Nc3cc(Cl)nc4ncnn34)cc21 [Example 61]
- IC50 ([1]; Table 2): > 200 µM
- IC50 (PDK1 enzyme; Table 2): > 200 µM
- IC50 (Chk1; Table 2): > 200 µM

SMILES: NC(=O)c1ccc(Nc2cc(-c3cccc(OCc4cccnc4)c3)n3ncnc3n2)cc1 [Example 145]
- IC50 ([1]; Table 4): 23.1 µM
- IC50 (PDK1 enzyme; Table 4): 1.73 µM
- IC50 (Chk1; Table 4): 9.86 µM

SMILES: CS(=O)(=O)c1ccc(Nc2cc(NC3CC3)nc3ncnn23)cc1 [Example 101]
- IC50 ([1]; Table 2): 15.1 µM
- IC50 (PDK1 enzyme; Table 2): > 200 µM
- IC50 (Chk1; Table 2): > 200 µM

SMILES: Cc1cc(Nc2ccc(C(N)=O)cc2)nc2ncnn12 [Example 114]
- IC50 ([1]; Table 3): > 200 µM
- IC50 (PDK1 enzyme; Table 3): > 200 µM
- IC50 (Chk1; Table 3): 6.42 µM

SMILES: CCN(CC)c1cc(Nc2ccc(S(=O)(=O)c3ccccc3)cc2)n2ncnc2n1 [Example 93]
- IC50 ([1]; Table 2): 0.67 µM
- IC50 (PDK1 enzyme; Table 2): > 200 µM
- IC50 (Chk1; Table 2): > 200 µM

SMILES: CC(C)C(CO)Nc1cc(Nc2ccc(S(N)(=O)=O)cc2)n2ncnc2n1 (stereo not drawn) [Example 31]
- IC50 ([1]; Table 1): 4.91 µM
- IC50 (PDK1 enzyme; Table 1): > 200 µM
- IC50 (Chk1; Table 1): > 200 µM

SMILES: NC(=O)c1ccc(Nc2cc(-c3cccc(F)c3)n3ncnc3n2)cc1 [Example 117]
- IC50 ([1]; Table 3): > 200 µM
- IC50 (PDK1 enzyme; Table 3): 7.3 µM
- IC50 (Chk1; Table 3): 3.05 µM

SMILES: CS(=O)(=O)c1ccc(Nc2cc(N)nc3ncnn23)cc1 [Example 97]
- IC50 ([1]; Table 2): 20.3 µM
- IC50 (PDK1 enzyme; Table 2): > 200 µM
- IC50 (Chk1; Table 2): > 200 µM

SMILES: CC(C)(C)CNc1cc(Nc2ccc(S(C)(=O)=O)cc2)n2ncnc2n1 [Example 94]
- IC50 ([1]; Table 2): 1.53 µM
- IC50 (PDK1 enzyme; Table 2): > 200 µM
- IC50 (Chk1; Table 2): > 200 µM

SMILES: O=C(O)c1ccc(Nc2cc(Cl)nc3ncnn23)cc1 [Example 25]
- IC50 ([1]; Table 1): 93.2 µM
- IC50 (PDK1 enzyme; Table 1): > 200 µM
- IC50 (Chk1; Table 1): > 200 µM

SMILES: NS(=O)(=O)c1ccc(Nc2cc(Cl)nc3ncnn23)cc1 [Example 1, 7-(4-Aminosulfonylphenylamino)-5-chlorotriazolol[1,5-a]pyrimidine]
- IC50 ([1]; Table 1): 20.1 µM
- IC50 (PDK1 enzyme; Table 1): > 200 µM
- IC50 (Chk1; Table 1): > 200 µM

SMILES: NC(=O)c1ccc(Nc2cc(-c3ccccc3)n3ncnc3n2)cc1 [Example 116]
- IC50 ([1]; Table 3): 97.5 µM
- IC50 (PDK1 enzyme; Table 3): 5.11 µM
- IC50 (Chk1; Table 3): 9.82 µM
